Reference: PMC12865225 (Clinical and Translational Science, 2026)
Where two headings read alike, the source gives them in different places.

Assays:
OATP2B1 = molecular target: T1, OATP2B1 (Homo sapiens, UniProt O94956); test: Uptake transport assay in OATP2B1-expressing HEK293 cells; type: cell-based; settings: for transport by OATP2B1: 2 and 50 μM, 10 min; for Vmax (pmol/106 cells/min) OATP2B1: uptake, 2 min
T1 construct: expressed in transfected cells; host or cells: HEK293 (recombinant baculovirus-mediated transduction)
T1 sequence (O94956 1-709): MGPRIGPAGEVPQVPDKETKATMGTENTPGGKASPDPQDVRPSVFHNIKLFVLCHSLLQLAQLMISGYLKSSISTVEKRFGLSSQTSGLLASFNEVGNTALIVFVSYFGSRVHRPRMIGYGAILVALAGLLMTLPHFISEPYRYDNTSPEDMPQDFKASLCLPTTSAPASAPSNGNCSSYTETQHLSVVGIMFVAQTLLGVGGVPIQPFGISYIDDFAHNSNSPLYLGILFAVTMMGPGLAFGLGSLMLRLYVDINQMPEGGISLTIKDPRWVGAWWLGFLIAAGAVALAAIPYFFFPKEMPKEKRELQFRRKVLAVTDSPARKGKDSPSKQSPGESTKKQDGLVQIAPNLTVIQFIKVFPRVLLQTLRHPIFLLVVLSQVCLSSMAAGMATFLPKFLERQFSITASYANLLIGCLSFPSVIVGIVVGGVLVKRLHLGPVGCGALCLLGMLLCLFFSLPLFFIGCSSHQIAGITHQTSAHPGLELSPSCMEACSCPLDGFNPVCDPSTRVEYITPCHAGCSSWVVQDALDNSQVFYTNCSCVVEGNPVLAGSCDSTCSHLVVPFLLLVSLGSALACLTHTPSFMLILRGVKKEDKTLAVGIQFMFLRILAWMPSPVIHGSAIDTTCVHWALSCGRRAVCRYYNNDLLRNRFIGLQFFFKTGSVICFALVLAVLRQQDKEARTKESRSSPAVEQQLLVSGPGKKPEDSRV
Description: The human transporters OATP1B1, OATP1B3, OATP2B1, and OAT1‐OAT4 and a negative control protein (enhanced yellow fluorescent protein, eYFP) were transiently expressed in human embryonic kidney 293 (HEK293) cells by recombinant baculovirus‐mediated transduction. Baculoviruses carrying human genes for the transporters were prepared as reported previously. HEK293 cells were cultured in DMEM containing 10% fetal bovine serum at 37°C and 5% CO2 and passaged two to three times per week. For the transport studies, 0.05 × 10^6 cells for 48‐well plates (OATPs) or 0.06 × 10^6 cells for 24‐well plates (OATs) were seeded onto cell‐culture treated well plates coated with poly‐D‐lysine. After 1 day, cells were transduced to produce recombinant proteins by changing media to DMEM containing 30 μL (48‐well plates) or 60 μL (24‐well plates) of recombinant baculovirus and 3 mM (OATs) or 5 mM (OATPs) sodium butyrate in a total media volume of 500 μL. The cells were cultured for a further 2 days before the transport assays.
For the transport studies, media were removed and cells were washed once with warm transport uptake buffer (TP‐buffer—pH 7.4 HBSS with 25 mM HEPES and 4 mM sodium bicarbonate). Each experiment included triplicate (OATP) or duplicate (OAT) samples for every test condition. The uptake was started by removing liquid from wells and applying warm TP‐buffer (200 μL for 24‐well plates or 125 μL for 48‐well plates) containing a test compound to cells. Transport assays were terminated after a pre‐specified incubation time (reported in figure legends) by removing substrate solution and washing cells three times with cold TP‐buffer (300 μL for 48‐well plates and 400 μL for 24‐well plates). For the liquid chromatography mass spectrometry (LC–MS) analysis, compounds were extracted from cells with 125 μL (48‐well plates) or 250 μL (24‐well plates) of an ultrapure‐water solution containing 75% methanol and 0.1% formic acid, shaking at 250 RPM for 30 min. […] Samples were transferred to well plates, centrifuged at 3000 g for 30 min, and transferred to a new well plate for the analysis.
Equation (2) (the Michaelis–Menten equation) was fit to the transport kinetic assay data. […] (2) Uptake=Vmax×S/Km+S

[1] = cited from earlier work; for Total CL: mean value from IV studies
[2] = Static model DDI risk evaluation (FDA R values), inhibitor concentrations; design: species or system human; settings: for I in,max,u maximum unbound plasma inhibitor concentration at liver inlet: 1000 mg oral dose, Fa×Fg 1, ka 0.1/min; for Igut intestinal luminal concentration: dose/250 mL
Description: To evaluate potential clinical DDIs for transporters, the FDA R values were calculated according to the FDA In Vitro Drug Interaction Studies guidance. Equation (3) was used to estimate the maximum unbound plasma inhibitor concentration at liver inlet (I in,max) for OATPs, where f u,p is the unbound fraction in plasma, C max is the maximal total concentration in plasma, F a is the fraction absorbed after oral administration, F g is the fraction available after intestinal metabolism, k a is the first‐order absorption rate constant in vivo, dose is the oral dose, Q h is the hepatic blood flow, and R B is the blood‐to‐plasma concentration ratio. (3) Iin,max,u=fu,p×Cmax+Fa×Fg×ka×Dose/Qh×RB
Hepatic blood flow (Q h) was set to 1.620 L/min [31].

[3] = 6.25 mg/kg PO, ref Jusko et al. 1975 11
[4] = 250 mg IV, ref DeSante et al. 1980 7
[5] = 250 mg PO, ref Sutherland et al. 1970 10
[6] = 500 mg PO, ref Beringer et al. 2008 12
[7] = 500 mg PO, ref Gravenkemper et al. 1965 13
[8] = 500 mg PO, ref Røder et al. 1995 14
[9] = 750 mg PO, ref Røder et al. 1995 14
[10] = 1000 mg PO, ref Gravenkemper et al. 1965 13
[11] = 1000 mg PO, ref Putnam et al. 2005 9
[12] = 1000 mg PO, ref Røder et al. 1995 14
[13] = 125 mg PO, ref Sutherland et al. 1970 10
[14] = 250 mg PO, ref Bodey et al. 1972 20
[15] = 500 mg IV, ref Landersdorfer et al. 2007 15
[16] = 500 mg IV, ref Landersdorfer et al. 2008 17
[17] = 500 mg PO, ref Bodey et al. 1972 20
[18] = 1000 mg IV, ref Adam et al. 1983 18
[19] = 1000 mg IV, ref Landersdorfer et al. 2007 15
[20] = 1000 mg IV, ref Landersdorfer et al. 2008 17
[21] = 1000 mg IV, ref Wise et al. 1980 19
[22] = 1000 mg PO MD (day 9), ref Iversen et al. 2023 22
[23] = 1000 mg PO MD (day 27), ref Iversen et al. 2023 22
[24] = 1000 mg PO SD, ref Iversen et al. 2023 22
[25] = 1000 mg PO, ref Everts et al. 2020 16
[26] = 1000 mg PO, ref Gardiner et al. 2018 21

Cc1onc(-c2c(Cl)cccc2Cl)c1C(=O)N[C@@H]1C(=O)N2[C@@H]1SC(C)(C)[C@@H]2C(=O)O [Dicloxacillin]
transport by OATP2B1 (OATP2B1): transported
Vmax (pmol/106 cells/min) OATP2B1 (OATP2B1): 61.5 pmol/106 cells/min
AUC (mg*h/l) Obs [1, 3]: 33.8 mg·h/L
Cmax (mg/l) Obs [1, 3]: 18.4 mg/L
AUC (mg*h/l) Obs [1, 4]: 23.8 mg·h/L
Cmax (mg/l) Obs [1, 4]: 56.5 mg/L
AUC (mg*h/l) Obs [1, 5]: 19.1 mg·h/L
Cmax (mg/l) Obs [1, 5]: 11.0 mg/L
AUC (mg*h/l) Obs [1, 6]: 36.6 mg·h/L
Cmax (mg/l) Obs [1, 6]: 11.1 mg/L
AUC (mg*h/l) Obs [1, 7]: 41.1 mg·h/L
Cmax (mg/l) Obs [1, 7]: 17.4 mg/L
AUC (mg*h/l) Obs [1, 8]: 30.8 mg·h/L
Cmax (mg/l) Obs [1, 8]: 17.3 mg/L
AUC (mg*h/l) Obs [1, 9]: 66.8 mg·h/L
Cmax (mg/l) Obs [1, 9]: 34.4 mg/L
AUC (mg*h/l) Obs ([1]; 1000 mg IV, ref Nauta and Mattie 1976 8): 114 mg·h/L
AUC (mg*h/l) Obs [1, 10]: 72.4 mg·h/L
Cmax (mg/l) Obs [1, 10]: 28.9 mg/L
AUC (mg*h/l) Obs [1, 11]: 78.0 mg·h/L
Cmax (mg/l) Obs [1, 11]: 31.4 mg/L
AUC (mg*h/l) Obs [1, 12]: 82.5 mg·h/L
Cmax (mg/l) Obs [1, 12]: 30.7 mg/L
fraction absorbed, range reported ([1]; dicloxacillin capsules): 35 – 76%
Total CL [1]: 8.885 L/h
I in,max,u maximum unbound plasma inhibitor concentration at liver inlet [2]: 5.51 µM
I max,u maximal unbound plasma concentration at steady state ([2]; C max × f u): 1.34 µM
Igut intestinal luminal concentration [2]: 8505 µM

Cc1onc(-c2c(F)cccc2Cl)c1C(=O)N[C@@H]1C(=O)N2[C@@H]1SC(C)(C)[C@@H]2C(=O)O [Flucloxacillin]
transport by OATP2B1 (OATP2B1): transported
Vmax (pmol/106 cells/min) OATP2B1 (OATP2B1): 74.9 pmol/106 cells/min
AUC (mg*h/l) Obs [1, 13]: 8.28 mg·h/L
Cmax (mg/l) Obs [1, 13]: 5.8 mg/L
AUC (mg*h/l) Obs [1, 14]: 14.6 mg·h/L
Cmax (mg/l) Obs [1, 14]: 5.7 mg/L
AUC (mg*h/l) Obs [1, 5]: 14.4 mg·h/L
Cmax (mg/l) Obs [1, 5]: 11.0 mg/L
AUC (mg*h/l) Obs [1, 15]: 60.9 mg·h/L
Cmax (mg/l) Obs [1, 15]: 86.8 mg/L
AUC (mg*h/l) Obs [1, 16]: 54.8 mg·h/L
Cmax (mg/l) Obs [1, 16]: 87.7 mg/L
AUC (mg*h/l) Obs [1, 17]: 29.1 mg·h/L
Cmax (mg/l) Obs [1, 17]: 11.4 mg/L
Cmax (mg/l) Obs ([1]; 500 mg PO, ref Sutherland et al. 1970 10): 14.7 mg/L
AUC (mg*h/l) Obs [1, 9]: 67.8 mg·h/L
Cmax (mg/l) Obs [1, 9]: 34.5 mg/L
AUC (mg*h/l) Obs [1, 18]: 141 mg·h/L
Cmax (mg/l) Obs [1, 18]: 236 mg/L
AUC (mg*h/l) Obs [1, 19]: 122 mg·h/L
Cmax (mg/l) Obs [1, 19]: 167 mg/L
AUC (mg*h/l) Obs [1, 20]: 113 mg·h/L
Cmax (mg/l) Obs [1, 20]: 173 mg/L
AUC (mg*h/l) Obs [1, 21]: 73.6 mg·h/L
Cmax (mg/l) Obs [1, 21]: 140 mg/L
AUC (mg*h/l) Obs [1, 22]: 56 mg·h/L
Cmax (mg/l) Obs [1, 22]: 20 mg/L
AUC (mg*h/l) Obs [1, 23]: 64 mg·h/L
Cmax (mg/l) Obs [1, 23]: 24 mg/L
AUC (mg*h/l) Obs [1, 24]: 51 mg·h/L
Cmax (mg/l) Obs [1, 24]: 21 mg/L
AUC (mg*h/l) Obs [1, 25]: 82 mg·h/L
Cmax (mg/l) Obs [1, 25]: 31 mg/L
AUC (mg*h/l) Obs [1, 26]: 71.6 mg·h/L
Cmax (mg/l) Obs [1, 26]: 27.4 mg/L
ka reported range [1]: 0.17 to 18.2 h⁻¹
CLR ([1]; mean from reported IV studies): 5.1 L/h
Total CL [1]: 7.75 L/h
I in,max,u maximum unbound plasma inhibitor concentration at liver inlet [2]: 15.7 µM
Igut intestinal luminal concentration [2]: 8813 µM
